Assay results reported in patent EP4603105A1, “PHARMACEUTICAL COMPOSITION CONTAINING CYCLIC COMPOUND HAVING SELECTIVE KRAS INHIBITORY EFFECT AGAINST HRAS AND NRAS” (CHUGAI SEIYAKU KABUSHIKI KAISHA, priority 2022, dated 2024).
pIC50: −log10 of the molar value. Where a SMILES comes first, the peptide text is derived from it. Bridges are numbered along the chain shown (N, C = ends). [ ]: non-standard residue; d: D form. The star is where a group is joined. hPhe(3,5-F2-4-CF3) = N[C@@H](CCc1cc(F)c(C(F)(F)F)c(F)c1)C(=O)O; hPhe(3-Cl-4-CF3) = N[C@@H](CCc1ccc(C(F)(F)F)c(Cl)c1)C(=O)O; NPrPhe(4-CF3) = CCCN[C@@H](Cc1ccc(C(F)(F)F)cc1)C(=O)O; NMePhe(4-Me) = CN[C@@H](Cc1ccc(C)cc1)C(=O)O; NMeGly(cPent) = CN[C@H](C(=O)O)C1CCCC1; Ac4c(3,3-Me2) = CC1(C)CC(N)(C(=O)O)C1; NMeD = CN[C@@H](CC(=O)O)C(=O)O; NMeL = CN[C@@H](CC(C)C)C(=O)O; Morpholide = C1CN(*)CCO1; Ac5c = NC1(C(=O)O)CCCC1; NBuGly = CCCCNCC(=O)O; Sar = CNCC(=O)O

Legend:
[1] = molecular target: GDP-bound NRAS wild-type protein (Homo sapiens, UniProt P01111); test: Binding to NRAS by surface plasmon resonance (SPR), KD and KD ratio to KRAS
Chain of GDP-bound NRAS wild-type protein (P01111 whole entry): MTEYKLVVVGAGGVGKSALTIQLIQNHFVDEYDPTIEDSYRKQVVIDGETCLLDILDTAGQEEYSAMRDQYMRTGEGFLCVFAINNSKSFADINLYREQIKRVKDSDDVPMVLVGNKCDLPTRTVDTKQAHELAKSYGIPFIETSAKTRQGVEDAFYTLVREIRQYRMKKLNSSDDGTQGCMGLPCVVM
Summary of the method: (§1)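 Single-cycle kinetics on GDP-loaded biotin-Avi RAS captured to ~100–300 RU; 75 s ascending injections, 100 µL/min, 30°C. HBS pH 7.4 + 10 mM MgCl2/10 µM GDP/4% DMSO. 1:1 fit, KD.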

[2] = molecular target: HRAS wild-type protein (Homo sapiens, UniProt P01112); test: Binding to HRAS by surface plasmon resonance (SPR), KD and KD ratio to KRAS
Chain of HRAS wild-type protein (P01112 whole entry): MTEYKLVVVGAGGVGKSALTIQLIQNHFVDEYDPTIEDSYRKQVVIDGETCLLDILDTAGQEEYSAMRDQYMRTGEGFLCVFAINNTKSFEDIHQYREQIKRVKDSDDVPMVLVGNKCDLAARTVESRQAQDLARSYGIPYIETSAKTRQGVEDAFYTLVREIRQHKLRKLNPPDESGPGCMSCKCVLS
Summary of the method: as §1

[3] = tested on: human lung cancer strain NCI-H441; type: cell-based
Summary of the method: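 Proliferation was scored by […] measured after the reagent was added to cultures kept at 37°C in 5% carbon dioxide.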

[4] = ratio of the KD value with respect to GDP-bound NRAS wild-type protein to the KD value with respect to KRAS
[5] = ratio of the KD value with respect to HRAS wild-type protein to the KD value with respect to KRAS

| Compound | NRAS /KRAS ([1]; ratio of KD for GDP-bound NRAS wild-type protein to KD for KRAS) | HRAS /KRAS ([2]; ratio of KD for HRAS wild-type protein to KD for KRAS) | pIC50 [3] | NRAS /KRAS ([1]; ratio of KD value for GDP-bound NRAS wild-type protein to KD value for KRAS (SPR)) | HRAS /KRAS ([2]; ratio of KD value for HRAS wild-type protein to KD value for KRAS (SPR)) | NRAS /KRAS [1, 4] | HRAS /KRAS [2, 5] |
| --- | --- | --- | --- | --- | --- | --- | --- |
| CCCCN1CC(=O)N(C)[C@@H](Cc2ccc(C)cc2)C(=O)N(C)CC(=O)N[C@@H](CCc2ccc(C(F)(F)F)c(Cl)c2)C(=O)N2CCC[C@H]2C(=O)NC2(CCCC2)C(=O)N(C)[C@@H](C2CCCC2)C(=O)N(C)[C@H](C(=O)N2CCOCC2)CC(=O)N(C)[C@@H](CC(C)C)C(=O)N[C@@H]([C@@H](C)CC)C(=O)N(C)CC1=O [PP0021] ([NMeL]I[Sar][NBuGly][NMePhe(4-Me)][Sar][hPhe(3-Cl-4-CF3)]P[Ac5c][NMeGly(cPent)][NMeD]-Morpholide; lactam N-11) | C (A compound having a KD ratio of 0.1 or more and less than 3 is denoted as C) | C (A compound having a KD ratio of 0.1 or more and less than 3 is denoted as C) | 8.01 |  |  |  |  |
| C#CC[C@H]1C(=O)N[C@@H]([C@@H](C)CC)C(=O)N(C)CC(=O)N(C)[C@H]2C/C=C\CCN(C2=O)[C@@H](Cc2ccc(C(F)(F)F)cc2)C(=O)N(C)CC(=O)N[C@@H](CCc2cc(F)c(C(F)(F)F)c(F)c2)C(=O)N2C[C@H](F)C[C@H]2C(=O)NC2(CC(C)(C)C2)C(=O)N(C)[C@@H](C2CCCC2)C(=O)N(C)[C@H](C(=O)N(C)CC)CC(=O)N1C [PP1691] |  |  | 8.51 | A (a compound having 10 or more and less than 20 is denoted as A) | A (a compound having 10 or more and less than 20 is denoted as A) |  |  |
| CCCN(C)C(=O)[C@@H]1CC(=O)N(C)[C@@H](C2CCC2)C(=O)N[C@@H]([C@@H](C)CC)C(=O)N(C)CC(=O)N(C)[C@H]2C/C=C\CCN(C2=O)[C@@H](Cc2ccc(C(F)(F)F)cc2)C(=O)N(C)CC(=O)N[C@@H](CCc2cc(F)c(C(F)(F)F)c(F)c2)C(=O)N2C[C@@H](C)C[C@H]2C(=O)NC2(CCC2)C(=O)N(C)[C@@H](C2CCCC2)C(=O)N1C [PP2083] |  |  | 7.99 |  |  | A (a compound having 10 or more and less than 20 is denoted as A) | B (a compound having 3 or more and less than 10 is denoted as B) |
| CCC[C@H]1C(=O)N[C@@H]([C@@H](C)CC)C(=O)N(C)CC(=O)N(C)[C@H]2C/C=C\CCN(C2=O)[C@@H](Cc2ccc(C(F)(F)F)cc2)C(=O)N(C)CC(=O)N[C@@H](CCc2cc(F)c(C(F)(F)F)c(F)c2)C(=O)N(C)[C@@H](COC)C(=O)NC2(CC(C)(C)C2)C(=O)N(C)[C@@H](C2CCCC2)C(=O)N(C)[C@H](C(=O)N(C)C)CC(=O)N1C [PP1936] |  |  | 7.91 |  |  | AA (a compound having 20 or more is denoted as AA) | A (a compound having 10 or more and less than 20 is denoted as A) |
| CCCN1C(=O)CN(C)C(=O)CN(C)C(=O)[C@H]([C@@H](C)OCC)NC(=O)[C@H](CC(C)C)N(C)C(=O)C[C@@H](C(=O)N2CCOCC2)N(C)C(=O)[C@H](C2CCCC2)N(C)C(=O)C2(CC(C)(C)C2)NC(=O)[C@@H]2CCCN2C(=O)[C@H](CCc2ccc(C(F)(F)F)c(Cl)c2)NC(=O)CN(C)C(=O)[C@@H]1Cc1ccc(C(F)(F)F)cc1 [PP1964] ([NMeL]T(Et)[Sar][Sar][NPrPhe(4-CF3)][Sar][hPhe(3-Cl-4-CF3)]P[Ac4c(3,3-Me2)][NMeGly(cPent)][NMeD]-Morpholide; lactam N-11) |  |  | 7.99 |  |  | B (a compound having 3 or more and less than 10 is denoted as B) | B (a compound having 3 or more and less than 10 is denoted as B) |
| CCCN1C(=O)CN(C)C(=O)CN(C)C(=O)[C@H]([C@@H](C)CC)NC(=O)[C@H](CC(C)C)N(C)C(=O)C[C@@H](C(=O)N2CCOCC2)N(C)C(=O)[C@H](C2CCCC2)N(C)C(=O)C2(CCCC2)NC(=O)[C@@H]2CCCN2C(=O)[C@H](CCc2cc(F)c(C(F)(F)F)c(F)c2)NC(=O)CN(C)C(=O)[C@@H]1Cc1ccc(C(F)(F)F)cc1 [PP0753] ([NMeL]I[Sar][Sar][NPrPhe(4-CF3)][Sar][hPhe(3,5-F2-4-CF3)]P[Ac5c][NMeGly(cPent)][NMeD]-Morpholide; lactam N-11) |  |  | 8.09 |  |  | B (a compound having 3 or more and less than 10 is denoted as B) | C (A compound having a KD ratio of 0.1 or more and less than 3 is denoted as C) |
